Data reported in US10722514B2 (FLX Bio, Inc., priority 2017, dated 2020).

These compounds were tested against T1, recombinant full-length USP7 (Homo sapiens, UniProt Q93009) (assay: USP7-mediated ubiquitin-rhodamine cleavage assay). Details: recombinant full-length USP7 62 pM; ubiquitin-rhodamine 100 nM; 30-minute incubation with compound, 1 hour reaction at room temperature; read-out: Potency: USP7 IC50.
T1 construct: A 25 μl reaction volume containing recombinant full-length USP7 (62 pM)
Assay type: biochemical
Method in brief: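 IC50 values came from fluorescence measured after a 1 h room-temperature reaction of 62 pM enzyme with 100 nM ubiquitin-rhodamine, following 30 min compound preincubation; fits used four parameters.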

T1 sequence (Q93009 whole entry): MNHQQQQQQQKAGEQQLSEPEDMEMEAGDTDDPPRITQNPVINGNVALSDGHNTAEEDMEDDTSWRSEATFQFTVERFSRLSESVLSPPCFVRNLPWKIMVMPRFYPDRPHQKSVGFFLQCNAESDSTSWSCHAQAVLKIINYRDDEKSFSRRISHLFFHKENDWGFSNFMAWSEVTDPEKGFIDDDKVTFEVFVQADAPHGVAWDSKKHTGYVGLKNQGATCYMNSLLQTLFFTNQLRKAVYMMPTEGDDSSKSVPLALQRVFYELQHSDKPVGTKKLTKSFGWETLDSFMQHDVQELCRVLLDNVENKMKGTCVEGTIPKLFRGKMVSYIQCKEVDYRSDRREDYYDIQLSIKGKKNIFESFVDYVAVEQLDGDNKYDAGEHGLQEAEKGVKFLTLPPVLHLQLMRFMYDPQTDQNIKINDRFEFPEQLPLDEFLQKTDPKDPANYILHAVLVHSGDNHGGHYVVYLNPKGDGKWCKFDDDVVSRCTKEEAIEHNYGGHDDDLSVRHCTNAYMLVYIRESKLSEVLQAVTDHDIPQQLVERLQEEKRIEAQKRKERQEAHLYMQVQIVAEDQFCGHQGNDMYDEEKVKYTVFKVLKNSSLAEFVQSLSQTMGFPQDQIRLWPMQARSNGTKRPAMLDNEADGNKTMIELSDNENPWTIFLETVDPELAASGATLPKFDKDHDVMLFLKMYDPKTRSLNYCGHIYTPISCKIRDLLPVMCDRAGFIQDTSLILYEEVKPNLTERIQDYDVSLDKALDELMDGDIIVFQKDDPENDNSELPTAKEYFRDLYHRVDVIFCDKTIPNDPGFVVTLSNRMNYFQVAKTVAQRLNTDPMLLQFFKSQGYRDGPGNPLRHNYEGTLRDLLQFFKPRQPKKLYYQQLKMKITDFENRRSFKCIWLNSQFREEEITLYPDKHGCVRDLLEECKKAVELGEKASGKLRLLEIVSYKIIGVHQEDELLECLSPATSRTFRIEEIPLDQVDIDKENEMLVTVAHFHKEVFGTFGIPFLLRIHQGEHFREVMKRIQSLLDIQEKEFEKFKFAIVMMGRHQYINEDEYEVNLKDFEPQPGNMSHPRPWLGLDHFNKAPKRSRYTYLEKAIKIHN

IC50 | SMILES
1000 to 10000 nM | Cc1cc(Cl)cc(-c2ncnc3cc(CN4C(=O)COC4=O)sc23)c1OC1CCNCC1 [Example 225, 3-((4-(5-Chloro-3-methyl-2-(piperidin-4-yloxy)phenyl)thieno[3,2-d]pyrimidin-6-yl)methyl)oxazolidine-2,4-dione]
10000 to 30000 nM | Cc1cc(Cl)cc(-c2ccnc3cc(CCOC4=NS(=O)(=O)c5ccccc54)sc23)c1O[C@@H]1CNC[C@@H]1F [Example 140, 3-(2-(7-(5-Chloro-2-(((3R,4S)-4-fluoropyrrolidin-3-yl)oxy)-3-methylphenyl)thieno[3,2-b]pyridin-2-yl)ethoxy)benzo[d]isothiazole 1,1-dioxide]
1000 to 10000 nM | Cc1cc(Cl)cc(-c2ncnc3cc(CN4C(=O)C5CCCCC5C4=O)sc23)c1O[C@@H]1CNC[C@@H]1F (stereo partly drawn) [Example 159, 2-((4-(5-Chloro-2-(((3R,4S)-4-fluoropyrrolidin-3-yl)oxy)-3-methylphenyl)thieno[3,2-d]pyrimidin-6-yl)methyl)hexahydro-1H-isoindole-1,3(2H)-dione]
< 1000 nM | Cc1cc(C#N)cc(-c2ccnc3cc(CN4C(=O)CCC4=O)sc23)c1O[C@@H]1CNC[C@@H]1F [Example 97, 3-(2-((2,5-Dioxopyrrolidin-1-yl)methyl)thieno[3,2-b]pyridin-7-yl)-4-(((3R,4S)-4-fluoropyrrolidin-3-yl)oxy)-5-methylbenzonitrile]
< 1000 nM | Cc1cc(Cl)cc(-c2ccnc3cc(CN4C(=O)CCC4=O)sc23)c1O[C@H]1CCNC[C@H]1C [Example 229, 1-((7-(5-Chloro-3-methyl-2-(((3R,4S)-3-methylpiperidin-4-yl)oxy)phenyl)thieno[3,2-b]pyridin-2-yl)methyl)pyrrolidine-2,5-dione]
< 1000 nM | Cc1cc(Cl)cc(-c2ccnc3cc(Cn4c(=O)ccn(CC(F)(F)F)c4=O)sc23)c1OC1CCNC1(C)C (stereo not drawn) [Example 344, 3-[[7-[5-chloro-2-(2,2-dimethylpyrrolidin-3-yl)oxy-3-methyl-phenyl]thieno[3,2-b]pyridin-2-yl]methyl]-1-(2,2,2-trifluoroethyl)pyrimidine-2,4-dione]
< 1000 nM | Cc1cc(Cl)cc(-c2ccnc3cc(CO)sc23)c1OCC1(C#N)CNC1 [Example 41, 3-((4-Chloro-2-(2-(hydroxymethyl)thieno[3,2-b]pyridin-7-yl)-6-methylphenoxy)methyl)azetidine-3-carbonitrile]

Same assay, conditions: recombinant full-length USP7 62 pM; ubiquitin-rhodamine 100 nM; 30-minute pre-incubation, 1 hour reaction at room temperature; read-out: Potency (USP7 IC50)

IC50 | SMILES
< 1000 nM | CCN1C[C@H]2C[C@@H]1[C@H](Oc1c(C)cc(Cl)cc1-c1ccnc3cc(Cn4c(=O)ccn(CC(F)(F)F)c4=O)sc13)C2 [Example 619, 3-[[7-[5-chloro-2-[[(1S,4R,5R)-3-ethyl-3-azabicyclo[2.2.1]heptan-5-yl]oxy]-3-methyl-phenyl]thieno[3,2-b]pyridin-2-yl]methyl]-1-(2,2,2-trifluoroethyl)pyrimidine-2,4-dione]
< 1000 nM | Cc1cc(Cl)cc(-c2ccnc3cc(Cn4c(=O)ccn(C)c4=O)sc23)c1O[C@@H]1CNC[C@@H](F)C1 [Example 496, 3-[[7-[5-chloro-2-[[(3S,5S)-5-fluoro-3-piperidyl]oxy]-3-methyl-phenyl]thieno[3,2-b]pyridin-2-yl]methyl]-1-methyl-pyrimidine-2,4-dione]
< 1000 nM | Cc1cc(Cl)cc(-c2ncnc3cc(Cn4c(=O)ccn(CC(F)(F)F)c4=O)sc23)c1O[C@H]1CCCN(C)C1 [Example 521, 3-[[4-[5-chloro-3-methyl-2-[[(3S)-1-methyl-3-piperidyl]oxy]phenyl]thieno[3,2-d]pyrimidin-6-yl]methyl]-1-(2,2,2-trifluoroethyl)pyrimidine-2,4-dione]
< 1000 nM | Cc1cc(Cl)cc(-c2ccnc3cc(Cn4c(=O)ccn(C)c4=O)sc23)c1OC1CCCN(CCO)C1 (stereo not drawn) [Example 506, 3-[[7-[5-chloro-2-[[1-(2-hydroxyethyl)-3-piperidyl]oxy]-3-methyl-phenyl]thieno[3,2-b]pyridin-2-yl]methyl]-1-methyl-pyrimidine-2,4-dione]

SMILES | IC50
Cc1cc(Cl)cc(-c2ccnc3cc(Cn4c(=O)ccn(C)c4=O)sc23)c1OC1CC(N2CCOCC2)C1 (stereo not drawn) [Example 516] | < 1000 nM
